Usually IC50 stands for the concentration that inhibits the measured activity by half.

The text below walks through data of patent US20250145665A1, “MACROCYCLIC PEPTIDES USEFUL AS MODULATORS OF TNF ALPHA” (Bristol-Myers Squibb Company, priority 2023, published 2025).

Starred links: 1 amine or outer side, 2 acyl side, 3 side chain; linkers in the order of their positions; H or OH if unused. Positions of bridges follow the written chain, without caps; N, C: chain ends. Non-standard residues stand in square brackets, D forms with d. Residues, ends and D or L forms follow the SMILES beside them. *: point of attachment. Bip(4'-(3-HOOC-benzamido)) = N[C@@H](Cc1ccc(-c2ccc(NC(=O)c3cccc(C(=O)O)c3)cc2)cc1)C(=O)O; Bip(4'-NH) = O=C([C@H](Cc1ccc(-c2ccc(N[*:3])cc2)cc1)N[*:1])[*:2]; Indazole3carbonyl(1-CH2COOH) = O=C(O)Cn1nc(C(=O)*)c2ccccc21; Bip(4'-COOH) = N[C@@H](Cc1ccc(-c2ccc(C(=O)O)cc2)cc1)C(=O)O; X66 = N=C(NCCC[C@@H](N[*:1])C(=O)[*:2])NCc1ccc(F)c(F)c1; Ala(imidazol-2-yl) = N[C@@H](Cc1ncc[nH]1)C(=O)O; Ala(morpholin-4-yl) = N[C@@H](CN1CCOCC1)C(=O)O; X88 = CC(=O)N[C@@H](Cc1ccc(OCC(=O)O)cc1)C(=O)*; Bip = N[C@@H](Cc1ccc(-c2ccccc2)cc1)C(=O)O; Tic = O=C(O)[C@@H]1Cc2ccccc2CN1; Cha = N[C@@H](CC1CCCCC1)C(=O)O; Tle = CC(C)(C)[C@H](N)C(=O)O; Sar = CNCC(=O)O

The target of the first assay is TNFα (Homo sapiens, UniProt P01375). The experiment in a line: TNF-Induced HEK-Blue Assay. It is filed as cell-based.
Sequence of TNFα (P01375 77-233 limits assumed): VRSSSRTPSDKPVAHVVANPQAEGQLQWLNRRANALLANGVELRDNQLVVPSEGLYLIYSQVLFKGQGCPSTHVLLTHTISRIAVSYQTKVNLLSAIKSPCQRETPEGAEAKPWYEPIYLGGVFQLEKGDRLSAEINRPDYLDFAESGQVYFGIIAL
Conditions: not given
`CC(C)C[C@@H]1NC(=O)[C@H](CCCNC(=N)N)NC(=O)[C@H](C(C)C)NC(=O)[C@@H]2CCCN2C(=O)[C@H](C(C)C)NC(=O)[C@@H](CCCNC(=N)N)NC(=O)[C@H](CC(=O)O)NC(=O)[C@@H]2CCCN2C(=O)CN(C)C(=O)[C@H](Cc2ccc(-c3ccc(NC(=O)c4nn(CC(=O)O)c5ccccc45)cc3)cc2)NC(=O)[C@H](Cc2ccc(-c3ccccc3)cc2)NC(=O)[C@H](CN2CCOCC2)NC(=O)CSC[C@@H](C(=O)NCC(N)=O)NC1=O` [Example 333] ({CH2CO}-[Ala(morpholin-4-yl)][Bip][Bip(4'-NH)](Indazole3carbonyl(1-CH2COOH))[Sar]PD[dR]VPVRLCG-NH2; thioether N-13) came in with an IC50 of under 50 nM. `CC(C)C[C@@H]1NC(=O)[C@H](CCCNC(=N)N)NC(=O)[C@H](C(C)C)NC(=O)[C@@H]2CCCN2C(=O)[C@H](C(C)C)NC(=O)[C@@H](CCCNC(=N)NCc2ccc(F)c(F)c2)NC(=O)[C@H](CC(=O)O)NC(=O)[C@@H]2CCCN2C(=O)CN(C)C(=O)[C@H](Cc2ccc(-c3ccc(NC(=O)c4nn(CC(=O)O)c5ccccc45)cc3)cc2)NC(=O)[C@H](Cc2ccc(-c3ccccc3)cc2)NC(=O)[C@H](CN2CCOCC2)NC(=O)CSC[C@@H](C(=O)NCC(N)=O)NC1=O` [Example 469] ({CH2CO}-[Ala(morpholin-4-yl)][Bip][Bip(4'-NH)](Indazole3carbonyl(1-CH2COOH))[Sar]PD[X66]VPVRLCG-NH2; thioether N-13) showed an IC50 of under 50 nM.

The assay is the same for the next values; noted with them: HEK-Blue-CD40L cells, NF-kB-driven secreted alkaline phosphatase reporter; TNFα 0.5 ng/ml; 18 h; read-out: TNF induced HEK-Blue assay IC50 value.
For the compound `CC[C@H](C)[C@@H]1NC(=O)[C@@H]2CCCN2C(=O)[C@H]([C@@H](C)CC)NC(=O)[C@@H](CCCNC(=N)N)NC(=O)[C@H](CC(=O)O)NC(=O)[C@H](Cc2ccccc2)NC(=O)CN(C)C(=O)[C@H](Cc2ccc(-c3ccc(NC(=O)[C@H](Cc4ccc(OCC(=O)O)cc4)NC(C)=O)cc3)cc2)NC(=O)[C@H](Cc2ccc(-c3ccc(C(=O)O)cc3)cc2)NC(=O)[C@H](C(C)(C)C)NC(=O)CSC[C@@H](C(=O)NCC(N)=O)NC(=O)[C@H](CC(C)C)NC(=O)[C@H](Cc2ncc[nH]2)NC1=O` [Example 417] ({CH2CO}-[Tle][Bip(4'-COOH)][Bip(4'-NH)](X88)[Sar]FD[dR]IPI[Ala(imidazol-2-yl)]LCG-NH2; thioether N-13), the IC50 was under 50 nM. Consider `CC(C)C[C@@H]1NC(=O)[C@H](Cc2ccc(O)cc2)NC(=O)[C@H](C(C)C)NC(=O)[C@@H]2Cc3ccccc3CN2C(=O)[C@H](C(C)C)NC(=O)[C@H](CCCNC(=N)N)NC(=O)[C@H](CC(=O)O)NC(=O)[C@H](Cc2ccc(O)cc2)NC(=O)CN(C)C(=O)[C@H](Cc2ccc(-c3ccccc3)cc2)NC(=O)[C@H](Cc2ccc(-c3ccccc3)cc2)NC(=O)[C@H](CN2CCOCC2)NC(=O)CSC[C@@H](C(=O)NCC(N)=O)NC1=O` [Example 74] ({CH2CO}-[Ala(morpholin-4-yl)][Bip][Bip][Sar]YDRV[Tic]VYLCG-NH2; thioether N-13), for which the IC50 was in the range of 200 to 2000 nM.

`CC(C)C[C@@H]1NC(=O)[C@H](Cc2ccc(O)cc2)NC(=O)[C@H](C(C)C)NC(=O)[C@@H]2CCCN2C(=O)[C@H](C(C)C)NC(=O)[C@H](CCCNC(=N)N)NC(=O)[C@H](CC(=O)O)NC(=O)[C@H](Cc2ccc(O)cc2)NC(=O)CN(C)C(=O)[C@H](Cc2ccc(-c3ccccc3)cc2)NC(=O)[C@H](Cc2ccc(-c3ccccc3)cc2)NC(=O)[C@H](CN2CCOCC2)NC(=O)CSC[C@@H](C(=O)NCC(N)=O)NC1=O` [Example 48] ({CH2CO}-[Ala(morpholin-4-yl)][Bip][Bip][Sar]YDRVPVYLCG-NH2; thioether N-13): the 50% inhibitory concentration (IC50) was 200 to 2000 nM.

Regarding `CC(C)C[C@@H]1NC(=O)[C@H](Cc2ccc(O)cc2)NC(=O)[C@H](C(C)C)NC(=O)[C@@H]2Cc3ccccc3CN2C(=O)[C@H](C(C)C)NC(=O)[C@@H](CCCNC(=N)N)NC(=O)[C@H](CC(=O)O)NC(=O)[C@@H]2CCCN2C(=O)CN(C)C(=O)[C@H](Cc2ccc(-c3ccc(NC(=O)c4cccc(C(=O)O)c4)cc3)cc2)NC(=O)[C@H](Cc2ccc(-c3ccc(C(=O)O)cc3)cc2)NC(=O)[C@H](CC2CCCCC2)NC(=O)CSC[C@@H](C(=O)NCC(N)=O)NC1=O` [Example 384] ({CH2CO}-[Cha][Bip(4'-COOH)][Bip(4'-(3-HOOC-benzamido))][Sar]PD[dR]V[Tic]VYLCG-NH2; thioether N-13), the IC50 is 50 to 200 nM.
